# Literature values in patent US20080146664A1, “Method for treating diseases caused by accumulation of body fat” (priority 2006, published 2008).
# Conditions: addition of conjugated linoleic acid
substance,measurement,value
conjugated linoleic acid,"lipodystrophy-like symptoms (fatty liver, splenic hypertrophy, disappearance of brown fat)",generated
same,pattern of adipose tissue decrease,partial decrease in adipose tissue
same,significant decrease in the parametrial adipose tissue,not observed
same,significant decrease in the weight of the liver,not observed
